Values belong to the compound of their own block, whether it stands above or below them.
Legend:
Type in all cases: physicochemical
[1] = Surface tension, DuNuoy tensiometer; conditions: room temperature (23° C.)
Method: Surface tension values were measured at room temperature (23° C.) using a Model 20 DuNuoy Tensiometer (Fisher Scientific, Fair Lawn, N.J.) equipped with a platinum-iridium ring with a mean circumference of 5.940 cm and a ring/wire radius of 53.21.

[2] = Density by weighing 2.0 mL of ionic liquid
Method: (§1) The densities of the ionic liquids […] were determined at 23° C. by placing 2.0 mL of the ionic liquid in a 2.0 mL volumetric tube and weighing by difference. The melting points of the ionic liquids were determined using a Perkin Elmer Pyris 1 Differential Scanning Calorimeter (Boston, Mass.). Typical methods involved using a 10° C./min temperature ramp to determine and identify the first and second order thermal transitions. […] For solid compounds, the melting points were verified using a capillary melting point apparatus. Refractive index measurements were conducted at 23° C. using a Bausch & Lomb Abbe-3L refractometer.

[3] = Refractive index, Abbe refractometer
Method: as §1

[4] = Thermal stability of thin film in fused silica capillary, flame ionization detection
Method: Thermal stabilities were measured by immobilizing an approximate 0.15-0.20 microns film of the ionic liquid on the inner wall of a fused silica capillary. The capillary was then heated slowly in an oven and a very sensitive flame ionization detector (or mass spectrometer) used to detect any volatilization or decomposition of the ionic liquid. There are several advantages of using this set-up to measure the thermal stabilities of ionic liquids. The thermal stability is measured in the absence of oxygen by purging the capillary with a continuous flow of an inert gas such as helium, hydrogen, or nitrogen. […] Finally, this approach can use mass spectrometry detection to determine the likely volatilization/decomposition products.

[5] = Solvation interaction parameters by inverse gas-liquid chromatography (Abraham model)
Method: The preparation of the capillary columns for inverse gas-liquid chromatographic analysis was performed using a previously described procedure. All capillary columns had efficiencies between 2100 to 2500 plates/meter. Characterization of the capillary columns and probe molecule descriptions are listed in supplemental information. Multiple linear regression analysis (MLRA) and statistical calculations were performed using the program Analyse-it (Microsoft, USA).
Solvation Characteristics. We have previously reported that the Abraham solvation model, a linear free energy approach that utilizes inverse gas-liquid chromatography to describe the solvation properties of a liquid, can be used to characterize room temperature ionic liquids. Described by equation 1, the model provides the so-called “interaction parameters” (r, s, a, b, l) by using multiple linear regression analysis to fit the retention factor (k, determined chromatographically) to the solute descriptors (R2, π2^Hα2H, β2^H, log L^16) for a wide variety of probe solute molecules. […]
Previously we characterized a large number of room temperature ionic liquids in terms of multiple solvation interactions using the solvation parameter model, shown in equation log k=c+rR2+sπ2^H+aα2^H+bβ2^H+l log L^16 [3] This approach utilizes inverse gas-liquid chromatography and allows the use of a large number of probe molecules to deconvolute solute retention in terms of the type and magnitude of individual solvation interactions. The solute descriptors (R2, π2^H, α2^H, .β2^H, log L^16) from Equation 3 are obtained from the literature for many probe molecules containing a variety of functional groups. The retention factor is determined chromatographically. The solute descriptors and retention factors are subjected to multiple linear regression analysis to obtain the interaction parameter coefficients (r, s, a, b, l), which ultimately characterize the stationary phase: r is the ability of the diionic liquid containing-stationary phase to interact with .π0 and n electrons of the solute, s is a measure of the dipolarity/polarizability of the diionic liquid containing-stationary phase, a defines the diionic liquid containing-stationary phase hydrogen bond basicity, b is a measure of the hydrogen bond acidity, and l refers to the ability of the diionic liquid containing-stationary phase to separate adjacent members of a homologous series.
Test solutes used to determine interaction parameters and solvation thermodynamics were dissolved in dichloromethane. […] Split injection and flame ionization detection were utilized with injection and detection temperatures of 250° C. Helium was used as the carrier gas with a column inlet pressure of 3.1 psi and flow rate of 1.0 mL/min. Methane was used to determine the dead volume of the column. Multiple linear regression analysis and statistical calculations were performed using the program Analyze-it (Microsoft).

- Surface Tension [1]: 58.1 dynes/cm
- Density ([2]; 23° C., Tables 1 and 2): 1.31 g/mL
- Refractive Index ([3]; 23° C., Tables 1 and 2): 1.456
Compound: 1,9-di(2,3-dimethylimidazolium)nonane di-tetrafluoroborate [C9(m2im)2-BF4]

Compound: C[N+]1(CCCCCCCCC[N+]2(C)CCCC2)CCCC1.O=S(=O)([N-]S(=O)(=O)C(F)(F)F)C(F)(F)F.O=S(=O)([N-]S(=O)(=O)C(F)(F)F)C(F)(F)F [C9(mpy)2-NTf2, 1,9-di(methylpyrrolidinium)nonane di-bis[(trifluoromethyl)sulfonyl]imidate]
- stable liquid range [4]: about −4 °C to >400 °C
- Interaction parameter a (hydrogen bond basicity) ([5]; 40° C.): 1.98
- Interaction parameter b (hydrogen bond acidity) ([5]; 40° C.): 0.32
- Interaction parameter c ([5]; 40° C.): −2.83
- Interaction parameter l (dispersion forces) ([5]; 40° C.): 0.62
- Interaction parameter r (interaction via nonbonding and π-electrons) ([5]; 40° C.): 0.27
- Interaction parameter s (dipolarity/polarizability) ([5]; 40° C.): 1.71
- Interaction parameter a (hydrogen bond basicity) ([5]; 70° C.): 1.65
- Interaction parameter b (hydrogen bond acidity) ([5]; 70° C.): 0.35
- Interaction parameter c ([5]; 70° C.): −2.85
- Interaction parameter l (dispersion forces) ([5]; 70° C.): 0.48
- Interaction parameter r (interaction via nonbonding and π-electrons) ([5]; 70° C.): 0.34
- Interaction parameter s (dipolarity/polarizability) ([5]; 70° C.): 1.52
- Interaction parameter a (hydrogen bond basicity) ([5]; 100° C.): 1.48
- Interaction parameter b (hydrogen bond acidity) ([5]; 100° C.): 0.15
- Interaction parameter c ([5]; 100° C.): −2.99
- Interaction parameter l (dispersion forces) ([5]; 100° C.): 0.42
- Interaction parameter r (interaction via nonbonding and π-electrons) ([5]; 100° C.): 0.23
- Interaction parameter s (dipolarity/polarizability) ([5]; 100° C.): 1.49

Compound: C=Cn1cc[n+](CCCCCCCCCCCC)c1.O=S(=O)([N-]S(=O)(=O)C(F)(F)F)C(F)(F)F [Monomer 3, 1-vinyl-3-dodecylimidazolium bis[(trifluoromethane)sulfonyl]imidate]
- Density ([2]; monomers/crosslinkers, Table A): 1.23 g/mL
- Refractive Index ([3]; monomers/crosslinkers, Table A): 1.448
